In brackets after ≈: the same amount, converted by molar mass. Like-named read-outs stand apart in the source and are kept apart here.
Experiments:
[1] = 20-25° C., relative humidity 50-60%, 24 hours, XRD
Method: FIG. 7 illustrates an XRD scan of crystalline (E)-N-{4-[3-chloro-4-(2-pyridinylmethoxy)anilino]-3-cyano-7-ethoxy-6-quinolinyl}-4-(dimethylamino)-2-butenamide maleate in Form II, before and after exposure to relative humidity of 50-60% at an ambient temperature of 20-25° C. for 24 hours.
FIG. 8 is an XRD scan of crystalline (E)-N-{4-[3-chloro-4-(2-pyridinylmethoxy)anilino]-3-cyano-7-ethoxy-6-quinolinyl}-4-(dimethylamino)-2-butenamide maleate in Form I before (lower scan), and after (upper scan) exposure to relative humidity of 50-60% at room temperature of 20-25° C. for 24 hours.

[2] = Dynamic vapor sorption (DVS) hygroscopicity; assay type: physicochemical; conditions: DVS isotherm, FIG. 2
Text: The relative stability and hygroscopicity of the two crystalline forms of the maleate salt was studied in detail by dynamic vapor sorption (DVS).

[3] = Solid state stability in closed and open containers at 40° C. and 75% RH; assay type: physicochemical; conditions: for time remained stable: closed and open containers at 40° C. and 75% RH
Text: Both Form I and Form II remained stable for 6 months under these conditions. […] Samples in the closed containers remained dry. HPLC purity analysis indicated no significant increase in degradation products in both open and closed conditions for up to 6 months.

[4] = Compound pharmacokinetics (systemic exposure) in rats; assay type: in vivo, rat; design: AUC/Dose: unit not given here; conditions: for AUC(0-t): read-out: AUC0-24
[5] = Salt form screen: physicochemical properties (solubility, pH, hygroscopicity); conditions: for pH: Table 1, pH of the solution
[6] = Solubility comparison of free base and maleate salt; conditions: for pH of solution in 2% Tween 80 in water: solvent 2% Tween 80 in water; for pH of solution in Water: solvent water
[7] = Physicochemical properties of maleate salt pilot batches; conditions: for Aqueous Solubility: footnote: s the free base
[8] = tested on: emectic receptors in the stomach; assay: Emectic receptor interaction / diarrhea in mammals; assay type: in vivo; conditions: in words
[9] = Stability of crystalline forms of the reslurry at room temperature for 14 days; assay type: physicochemical; conditions: reslurry in Ethyl acetate
Text: In one embodiment the re-slurry is allowed to stand for about 14 days.

[10] = Water solubility and BCS classification of the free base; assay type: physicochemical
Text: Pat. […] The compound is classified, based on the Biopharmaceutical Classification System, as a BCS Class IV compound (low water solubility and low permeability). […] The water solubility increases with decreasing pH as the compound becomes ionized. This compound is […] rate limiting. There is a need for a form of this compound with improved physicochemical properties.

physchem = conditions: aqueous with cosolvent or surfactant or cyclodextrin
[11] = plasma, oral, rat Female, 5 mg/kg, Day 28, mean (SE), N 3
[12] = plasma, oral, rat Male, 5 mg/kg, Day 28, mean (SE), N 3
[13] = plasma, rat Female, 15 mg/kg, Day 28, mean (SE), N 3
[14] = plasma, rat Male, 15 mg/kg, Day 28, mean (SE), N 3
[15] = pilot batch Run 1, batch size 0.5 g
[16] = pilot batch Run 2, batch size 6.6 g
[17] = pilot batch Run 3, batch size 4 g
[18] = Closed Vial at 40° C./75% RH, 1 week in storage
[19] = Closed Vial at 40° C./75% RH, 2 weeks in storage
[20] = Closed Vial at 40° C./75% RH, 4 weeks in storage
[21] = Closed Vial at 40° C./75% RH, 12 weeks in storage
[22] = Closed Vial at 40° C./75% RH, 24 weeks in storage
[23] = Closed Vial at 40° C./75% RH, Initial
[24] = Open Vial at 40° C./75% RH, 1 week in storage
[25] = Open Vial at 40° C./75% RH, 2 weeks in storage
[26] = Open Vial at 40° C./75% RH, 4 weeks in storage
[27] = Open Vial at 40° C./75% RH, 12 weeks in storage
[28] = Open Vial at 40° C./75% RH, 24 weeks in storage
[29] = Open Vial at 40° C./75% RH, Initial
[30] = plasma, oral, rat Male, 100 mg/kg, Day 10, mean (SE), N 3
[31] = plasma, rat Female, 30 mg/kg, Day 10, mean (SE), N 3
[32] = plasma, rat Male, 10 mg/kg, Day 10, mean (SE), N 3
[33] = plasma, rat Male, 30 mg/kg, Day 10, mean (SE), N 3

Compound: CCOc1cc2ncc(C#N)c(Nc3ccc(OCc4ccccn4)c(Cl)c3)c2cc1NC(=O)/C=C/CN(C)C.O.O=C(O)/C=C\C(=O)O [Form II]
- form stability on exposure to ambient humidity [1]: relatively stable
- relative humidity at which water is lost ([2]; especially at 10% RH and below): ≤ 20 % RH
- time remained stable [3]: 6 months

Compound: CCOc1cc2ncc(C#N)c(Nc3ccc(OCc4ccccn4)c(Cl)c3)c2cc1NC(=O)/C=C/CN(C)C.O=C(O)/C=C\C(=O)O [Maleate salt]
- Cmax [4, 11]: 1380 ng/mL
- AUC(0-t) [4, 11]: 9530 ng·h/mL
- AUC(0-t) ([4]; plasma, oral, rat Female, 45 mg/kg, Day 28, mean (SE), N 3): 75600 ng·h/mL
- Cmax [4, 12]: 1200 ng/mL
- AUC(0-t) [4, 12]: 8220 ng·h/mL
- AUC(0-t) ([4]; plasma, oral, rat Male, 45 mg/kg, Day 28, mean (SE), N 3): 65100 ng·h/mL
- Cmax [4, 13]: 3560 ng/mL
- AUC(0-t) [4, 13]: 34200 ng·h/mL
- Cmax ([4]; plasma, rat Female, 45 mg/kg, Day 28, mean (SE), N 3): 4560 ng/mL
- Cmax [4, 14]: 3420 ng/mL
- AUC(0-t) [4, 14]: 30200 ng·h/mL
- Cmax ([4]; plasma, rat Male, 45 mg/kg, Day 28, mean (SE), N 3): 4620 ng/mL
- AUC/Dose ([4]; rat Female, 5 mg/kg, Day 28, mean (SE), N 3): 1907 (169)
- AUC/Dose ([4]; rat Female, 15 mg/kg, Day 28, mean (SE), N 3): 2278 (177)
- AUC/Dose ([4]; rat Female, 45 mg/kg, Day 28, mean (SE), N 3): 1681 (141)
- AUC/Dose ([4]; rat Male, 5 mg/kg, Day 28, mean (SE), N 3): 1645 (126)
- AUC/Dose ([4]; rat Male, 15 mg/kg, Day 28, mean (SE), N 3): 2014 (178)
- AUC/Dose ([4]; rat Male, 45 mg/kg, Day 28, mean (SE), N 3): 1446 (106)
- increase in AUC as compared to the free base ([4]; rat, dose range of 5 to 45 mg/kg): two-fold
- solubility [5]: 0.37 mg/g
- pH ([5]; salt screen): 5.11
- hygroscopicity ([5]; salt screen, in words): less hygroscopic
- solubility ([6]; 2% Tween 80 in water, aqueous with cosolvent or surfactant or cyclodextrin): 1120 µg/mL
- pH of solution in 2% Tween 80 in water [6]: (pH 5.06)
- pH of solution in Water [6]: (pH 5.00)
- solubility ([6]; water, pH 5, water): 430 µg/mL
- Solution pH [7, 15]: 5.11
- Aqueous Solubility [7, 15]: 0.37 mg/g
- Solution pH [7, 16]: 5.10
- Aqueous Solubility [7, 16]: 0.50 mg/g
- Solution pH [7, 17]: 5.15
- Aqueous Solubility [7, 17]: 0.44 mg/g
- emectic receptor interaction / diarrhea [8]: minimizes emectic receptor interactions in mammals

Compound: Tosylate
- pH ([5]; salt screen): 4.72
- solubility ([5]; salt screen, Table 1, water): 6.89 mg/g

Compound: CCOc1cc2ncc(C#N)c(Nc3ccc(OCc4ccccn4)c(Cl)c3)c2cc1NC(=O)/C=C/CN(C)C.O=C(O)/C=C\C(=O)O [Form I]
- relative humidity at which moisture is gained ([2]; especially at 60% RH and above): above 40 % relative humidity (RH)
- Final Form, wet cake [9]: I + some II
- Moisture [3, 18]: 0.39%
- Potency (dry basis) [3, 18]: 100.46%
- Potency as is [3, 18]: 100.07%
- Total impurities [3, 18]: 0.57%
- Moisture [3, 19]: 0.34%
- Potency (dry basis) [3, 19]: 100.38%
- Potency as is [3, 19]: 100.03%
- Total impurities [3, 19]: 0.64%
- Moisture [3, 20]: 0.22%
- Potency (dry basis) [3, 20]: 97.09%
- Potency as is [3, 20]: 96.87%
- Total impurities [3, 20]: 0.61%
- Moisture [3, 21]: 0.46%
- Potency (dry basis) [3, 21]: 100.67%
- Potency as is [3, 21]: 100.21%
- Total impurities [3, 21]: 0.66%
- Moisture [3, 22]: 0.16%
- Potency (dry basis) [3, 22]: 99.12%
- Potency as is [3, 22]: 98.96%
- Total impurities [3, 22]: 0.68%
- Moisture [3, 23]: 0.35%
- Potency (dry basis) [3, 23]: 100.85%
- Potency as is [3, 23]: 100.50%
- Total impurities [3, 23]: 0.57%
- Moisture [3, 24]: 2.82%
- Potency (dry basis) [3, 24]: 102.01%
- Potency as is [3, 24]: 99.13%
- Total impurities [3, 24]: 0.55%
- Moisture [3, 25]: 2.86%
- Potency (dry basis) [3, 25]: 100.37%
- Potency as is [3, 25]: 97.50%
- Total impurities [3, 25]: 0.65%
- Moisture [3, 26]: 2.74%
- Potency (dry basis) [3, 26]: 97.96%
- Potency as is [3, 26]: 95.27%
- Total impurities [3, 26]: 0.58%
- Moisture [3, 27]: 2.98%
- Potency (dry basis) [3, 27]: 101.13%
- Potency as is [3, 27]: 98.12%
- Total impurities [3, 27]: 0.65%
- Moisture [3, 28]: 2.79%
- Potency (dry basis) [3, 28]: 100.01%
- Potency as is [3, 28]: 97.22%
- Total impurities [3, 28]: 0.69%
- Moisture [3, 29]: 0.35%
- Potency (dry basis) [3, 29]: 100.85%
- Potency as is [3, 29]: 100.50%
- Total impurities [3, 29]: 0.57%
- time remained stable [3]: 6 months
- water uptake in open containers ([3]; open containers at 40° C. and 75% RH): rapidly absorbed one mole of water to form the monohydrate form

Compound: Fumarate
- pH ([5]; salt screen): 3.53

Compound: CCOc1cc2ncc(C#N)c(Nc3ccc(OCc4ccccn4)c(Cl)c3)c2cc1NC(=O)/C=C/CN(C)C [free base]
- Cmax [4, 30]: 3820 ng/mL
- AUC(0-t) [4, 30]: 58300 ng·h/mL
- Cmax [4, 31]: 2440 ng/mL
- AUC(0-t) [4, 31]: 25000 ng·h/mL
- Cmax [4, 32]: 814 ng/mL
- AUC(0-t) [4, 32]: 6780 ng·h/mL
- Cmax ([4]; plasma, rat Male, 20 mg/kg, Day 1, mean (SE), N 4): 1010 ng/mL
- AUC(0-inf) ([4]; plasma, rat Male, 20 mg/kg, Day 1, mean (SE), N 4, footnote a: AUC0-∞): 8510 ng·h/mL
- Cmax [4, 33]: 1650 ng/mL
- AUC(0-t) [4, 33]: 20400 ng·h/mL
- systemic availability ([4]; rat): 20%
- AUC/Dose ([4]; rat Female, 30 mg/kg, Day 10, mean (SE), N 3): 832 (145)
- AUC/Dose ([4]; rat Male, 10 mg/kg, Day 10, mean (SE), N 3): 678 (64)
- AUC/Dose ([4]; rat Male, 20 mg/kg, Day 1, mean (SE), N 4): 426 (81)
- AUC/Dose ([4]; rat Male, 30 mg/kg, Day 10, mean (SE), N 3): 680 (78)
- AUC/Dose ([4]; rat Male, 100 mg/kg, Day 10, mean (SE), N 3): 583 (125)
- pH of solution in 2% Tween 80 in water [6]: (pH 6.4)
- pH of solution in Water [6]: (pH 8.2)
- Biopharmaceutical Classification System class ([10]; low water solubility and low permeability): BCS Class IV
- solubility ([10]; water, at about pH 7): ~1 µg/mL (≈ 1.8 µM)
- solubility (physchem): 50 µg/mL (≈ 89.8 µM)
- emectic receptor interaction / diarrhea [8]: giving rise to diarrhea in mammals
